These results are taken from US12370208B2, “Adenosine derivative and pharmaceutical composition comprising the same” (Brii Biosciences, Inc., priority 2019, dated 2025).

Molecules are shown by their SMILES. “And” between values parts separate entries of the source, which are not always exact repeats. Equal values may be shown once.

A short description of data set [1]: Liver S9 stability and conversion to EFdA in human liver S9. The data set is classed as in vitro ADME. Conditions: for Stability in Human Liver S9 Half-life: human liver S9, 37° C.; for Conversion to the target drug: liver S9 assay. Here is the method: Intermediate solution: Dilute 5 μL of compounds or controls (7-ethoxycoumarin) from stock solution (10 mM) with 495 μL MeOH (Conc.: 100 μM, 1% DMSO, 99% MeOH). Stop solution: Cold ACN (including 100 ng/mL Tolbutamide and Labetalol as internal standard). Add 2 μL test compound or control working solution/well to all plates (T0, T5, T10, T20, T30, T60, NCF60) except matrix blank. Add 600 μL/well stop solution (cold in 4° C., including 100 ng/mL Tolbutamide/100 ng/mL Labetalol) to terminate the T0 plate, then put it on ice. Dispense 840 μL/well S9 solution to 96-well plate as reservoir according to plate map. Then add 100 μL/well to every plate by Apricot. Incubate S9 solution and compound at 37° C. for about 10 min except NCF60 and TO. After adding S9 solution and 98 μL PB buffer to NCF60, incubate at 37° C. without pre-warming, start timer 1. After 60 min, add 600 μL/well stop solution to terminate the reaction. After pre-warming, dispense 760 μL/well cofactor solution to 96-well plate as reservoir according to plate map. Then add 98 μL/well to every plate by Apricot to start reaction. Incubate at 37° C., start timer 2, Add 600 μL/well stop solution (cold in 4° C., including 100 ng/mL Tolbutamide and Labetalol) to terminate the reaction. Samples are centrifuged at 4000 rpm for 20 min. While centrifuging, load 8×new 96-well plate with 300 μL HPLC water, then transfer 100 μL supernatant, mix with water for LC/MS/MS, transferred to Bioanalytical Services for LC-MS/MS analysis. Use equation of first order kinetics to calculate t1/2 and CL: Equation of first order kinetics: […]

A short description of data set [2]: Plasma stability and conversion to EFdA in human plasma. The data set is classed as in vitro ADME.
Method: The pooled frozen plasma was thawed in a water bath at 37° C. prior to experiment. Plasma was centrifuged at 4000 rpm for 5 min and the clots were removed if any. The pH will be adjusted to 7.4±0.1 if required.
Preparation of test compounds and positive control (propantheline bromide): 1 mM intermediate solution was prepared by diluting 10 μL of the stock solution with 90 μL MeOH; 1 mM intermediate of positive control Propantheline was prepared by diluting 10 μL of the stock solution with 90 μL ultrapure water. 100 μM dosing solution was prepared by diluting 20 μL of the intermediate solution (1 mM) with 180 μL MeOH. 98 μL of blank plasma was spiked with 2 μL of dosing solution (100 μM) to achieve 2 μM of the final concentration in duplicate and samples were incubated at 37° C. in a water bath. At each time point (0, 10, 30, 60 and 120 min), 400 μL of stop solution (0.1% FA in MeOH containing 200 ng/mL tolbutamide and 200 ng/mL Labetalol) was added to precipitate protein and mixed thoroughly. Centrifuged sample plates at 4,000 rpm for 10 min. An aliquot of supernatant (100 μL) was transferred from each well to another plates.
Data analysis: The % remaining of test compound after incubation in plasma was calculated using following equation: % Remaining=100×(PAR at appointed incubation time/PAR at T0 time) where PAR is the peak area ratio of analyte versus internal standard (IS) (LC/MS/MS mobile phase condition: 0.1% Formic Acid in Water/0.1% Formic Acid in Acetonitrile. The appointed incubation time points are T0 (0 min), Tn (n=0, 10, 30, 60, 120 min). Liver S9 Stability
Data set [3] is described as follows: Plasma exposures following oral administration to beagle dogs.
Setting [4] is: Prodrug formula 4-A PO 8.25 mg/kg, 12.0 hrs, individual animals 2001-2003.
Where [5] appears, read: Prodrug formula 4-A PO 8.25 mg/kg, 24.0 hrs, individual animals 2001-2003.

With `C#C[C@]1(CO)O[C@@H](n2cnc3c(NC(=O)OC(C)C)nc(F)nc32)C[C@@H]1O` [Formula 3-A, isopropyl (9-((2R,4S,5R)-5-ethynyl-4-hydroxy-5-(hydroxymethyl)tetrahydrofuran-2-yl)-2-fluoro-9H-purin-6-yl)carbamate], in data set [1], the “Stability in Human Liver S9 Formation of EFdA” value is “No” and the “Stability in Human Liver S9 Half-life” value is recorded as “B (B: 50-200 minutes)”. Moreover, in data set [2], the “Stability in Human Plasma Formation of EFdA” value is on record as “No”.
With `C#C[C@]1(CO)O[C@@H](n2cnc3c(N)nc(F)nc32)C[C@@H]1O` [EFdA, (2R,3S,5R)-5-(6-amino-2-fluoro-9H-purin-9-yl)-2-ethynyl-2-(hydroxymethyl)tetrahydrofuran-3-ol, reference compound], the “EFdA Concentrations in Dog Plasma” value is reported as “BQL” in data set [3] (EFdA PO 5 mg/kg, 6.00 hrs, individual animals 4001-4003); “BQL” in data set [3] (EFdA PO 5 mg/kg, 8.00 hrs, individual animals 4001-4003); “BQL” in data set [3] (EFdA PO 5 mg/kg, 12.0 hrs, individual animals 4001-4003); “BQL” in data set [3] (EFdA PO 5 mg/kg, 24.0 hrs, individual animals 4001-4003). Further, the “EFdA Exposure in Plasma Cmax” value in data set [3] (oral EFdA 5 mg/kg, dogs) is reported as 392 ng/mL. Further, the “EFdA Exposure in Plasma AUC” value in data set [3] (oral EFdA 5 mg/kg, dogs, AUC0-24 h) stood at 792 ng·h/mL.
With `C#C[C@]1(COC(=O)OCc2oc(=O)oc2C)O[C@@H](n2cnc3c(N)nc(F)nc32)C[C@@H]1O` [Formula 4-A, ((2R,3S,5R)-5-(6-amino-2-fluoro-9H-purin-9-yl)-2-ethynyl-3-hydroxytetrahydrofuran-2-yl)methyl((5-methyl-2-oxo-1,3-dioxol-4-yl)methyl) carbonate], the “Stability in Human Liver S9 Formation of EFdA” value in data set [1] was “Yes”. For the same compound, the “Conversion to the target drug” value in data set [1] and in data set [2] (human plasma assay) was “can be converted to the target drug efficiently” in each case. The “AUC compared with a dose-equivalent EFdA” value in data set [3] (EFdA in dog plasma, oral) is reported as “higher”. Moreover, the “Cmax compared with a dose-equivalent EFdA” value in data set [3] (EFdA in dog plasma, oral) is reported as “higher”. Also, the “Prodrug formula 4-A Concentrations in Dog Plasma” value in data set [3] (Prodrug formula 4-A PO 8.25 mg/kg, 0.250 hrs, individual animals 2001-2003, 8.25 mg/kg) was 1.13 ng/mL and 1.63 ng/mL and 1.09 ng/mL; in data set [3] (Prodrug formula 4-A PO 8.25 mg/kg, 0.500 hrs, individual animals 2001-2003, 8.25 mg/kg) it was “BQL (2×) and 1.68 ng/mL”; in data set [3] (Prodrug formula 4-A PO 8.25 mg/kg, 1.00 hrs, individual animals 2001-2003, 8.25 mg/kg), “BQL (2×) and 1.43 ng/mL”; in data set [3] (Prodrug formula 4-A PO 8.25 mg/kg, 2.00 hrs, individual animals 2001-2003), “BQL”; in data set [3] (Prodrug formula 4-A PO 8.25 mg/kg, 4.00 hrs, individual animals 2001-2003) it was “BQL”; in data set [3] (Prodrug formula 4-A PO 8.25 mg/kg, 6.00 hrs, individual animals 2001-2003) it was “BQL”. The “Prodrug formula 4-A Concentrations in Dog Plasma” value in data set [3] (Prodrug formula 4-A PO 8.25 mg/kg, 8.00 hrs, individual animals 2001-2003) is reported as “BQL”; in data set [3] (setting [4]), “BQL”; in data set [3] (setting [5]), “BQL”. For the same compound, the “Prodrug formula 4-A Concentrations in Dog Plasma, Mean” value is listed as 1.28 ng/mL in data set [3] (Prodrug formula 4-A PO 8.25 mg/kg, 0.250 hrs, mean of 3 dogs); 1.68 ng/mL in data set [3] (Prodrug formula 4-A PO 8.25 mg/kg, 0.500 hrs, Mean column (one animal above BQL)); 1.43 ng/mL in data set [3] (Prodrug formula 4-A PO 8.25 mg/kg, 1.00 hrs, Mean column (one animal above BQL)). For the same compound, the “EFdA Concentrations in Dog Plasma” value in data set [3] (setting [4]) and in data set [3] (setting [5]) was “BQL” throughout. Further, the “Prodrug detected in the systemic circulation” value in data set [3] (dogs, oral) was “minimal”. The “Stability in Human Plasma Formation of EFdA” value in data set [2] is reported as “Yes”.
As to `C#C[C@]1(COC(=O)NCCN(C)Cc2oc(=O)oc2C)O[C@@H](n2cnc3c(N)nc(F)nc32)C[C@@H]1O` [Formula 7-A, ((2R,3S,5R)-5-(6-amino-2-fluoro-9H-purin-9-yl)-2-ethynyl-3-hydroxytetrahydrofuran-2-yl)methyl (2-(methyl((5-methyl-2-oxo-1,3-dioxol-4-yl)methyl)amino)ethyl)carbamate], the “Stability in Human Liver S9 Formation of EFdA” value in data set [1] is “No”. Also, the “Stability in Human Plasma Formation of EFdA” value in data set [2] is on record as “No”.
For `C#C[C@]1(COC(=O)NC(C)C)O[C@@H](n2cnc3c(N)nc(F)nc32)C[C@@H]1O` [Formula 2-A, ((2R,3S,5R)-5-(6-amino-2-fluoro-9H-purin-9-yl)-2-ethynyl-3-hydroxytetrahydrofuran-2-yl)methyl isopropylcarbamate], the “Stability in Human Liver S9 Formation of EFdA” value in data set [1] is “No”. The “Stability in Human Plasma Formation of EFdA” value in data set [2] is given as “No”.
Turning to `C#C[C@]1(COC(=O)OCc2oc(=O)oc2C)O[C@@H](n2cnc3c(N)nc(F)nc32)C[C@@H]1OC(=O)OCc1oc(=O)oc1C` [Formula 4-C, [(2R,3S,5R)-5-(6-amino-2-fluoro-purin-9-yl)-2-ethynyl-2-[(5-methyl-2-oxo-1,3-dioxol-4-yl)methoxycarbonyloxymethyl]tetrahydrofuran-3-yl] (5-methyl-2-oxo-1,3-dioxol-4-yl)methyl carbonate], in data set [1], the “Stability in Human Liver S9 Formation of EFdA” value was “Yes”, the “Stability in Human Liver S9 Half-life” value was “C (C: <50 minutes)” and the “Conversion to the target drug” value is listed as “can be converted to the target drug efficiently”. Moreover, in data set [2], the “Conversion to the target drug” value is reported as “can be converted to the target drug efficiently” and the “Stability in Human Plasma Formation of EFdA” value is given as “Yes”.
On to `C#C[C@]1(CO)O[C@@H](n2cnc3c(NCc4oc(=O)oc4C)nc(F)nc32)C[C@@H]1O` [Formula 6-A, 4-(((9-((2R,4S,5R)-5-ethynyl-4-hydroxy-5-(hydroxymethyl)tetrahydrofuran-2-yl)-2-fluoro-9H-purin-6-yl)amino)methyl)-5-methyl-1,3-dioxol-2-one], for which, in data set [1], the “Stability in Human Liver S9 Formation of EFdA” value was “Yes” and the “Conversion to the target drug” value is “can be converted to the target drug efficiently”. In data set [2], the “Stability in Human Plasma Formation of EFdA” value is listed as “No”.
On to `C#C[C@]1(COC(=O)NC)O[C@@H](n2cnc3c(N)nc(F)nc32)C[C@@H]1O` [Formula 5-A, ((2R,3S,5R)-5-(6-amino-2-fluoro-9H-purin-9-yl)-2-ethynyl-3-hydroxytetrahydrofuran-2-yl)methyl methylcarbamate], for which the “Stability in Human Liver S9 Formation of EFdA” value in data set [1] is given as “No”. The “Stability in Human Plasma Formation of EFdA” value in data set [2] is recorded as “No”.
